Experimental data published in article PMC11410943 (Nature Communications, 2024).
≈ marks a conversion by molar mass, not a printed value.

Key:
[1] = Hepatocyte stability / intrinsic clearance; assay type: in vitro ADME, dog
[2] = biological target: CYP3A4 (Homo sapiens, UniProt P08684); assay: CYP reaction phenotyping; assay type: in vitro ADME
[3] = Blood-brain barrier crossing
[4] = tested on: P. aeruginosa; assay: Neutropenic mouse; assay type: in vivo
[5] = tested on: K. pneumoniae; assay: Neutropenic mouse; assay type: in vivo; details: SC every 8 h, wild-type and MDR isolates
[6] = tested on: E. coli; assay: Neutropenic mouse; assay type: in vivo; details: SC every 8 h, wild-type and MDR isolates
[7] = tested on: A. baumannii; details: in vivo, iv
[8] = Bile duct cannulation / excretion study in rats; assay type: in vivo, Sprague-Dawley rats
[9] = Rat 14-day GLP toxicology / toxicokinetics; assay type: in vivo
[10] = First-in-human SAD study, PK; assay type: in vivo, healthy human volunteers; details: for half-life: both, human, plasma, iv
[11] = First-in-human SAD study, safety and tolerability; assay type: in vivo, healthy human volunteers; details: single IV infusion 120-1050 mg
[12] = tested on: Escherichia coli; assay: MIC
[13] = tested on: Enterobacter cloacae; assay: MIC; details: Enterobacter cloacae
[14] = tested on: Stenotrophomonas maltophilia; assay: MIC; details: IHMA/CARB-X MDR clinical isolates 2019, N=150
[15] = tested on: K. pneumoniae; assay: Neutropenic rat lung infection model; details: IV infusion, MDR isolates
[16] = tested on: MDR Gram-negative and Gram-positive pathogens; assay: MIC
[17] = Prediction of human PK by allometry / 2-compartment model; details: 70 kg

Chain of CYP3A4 (P08684 whole entry): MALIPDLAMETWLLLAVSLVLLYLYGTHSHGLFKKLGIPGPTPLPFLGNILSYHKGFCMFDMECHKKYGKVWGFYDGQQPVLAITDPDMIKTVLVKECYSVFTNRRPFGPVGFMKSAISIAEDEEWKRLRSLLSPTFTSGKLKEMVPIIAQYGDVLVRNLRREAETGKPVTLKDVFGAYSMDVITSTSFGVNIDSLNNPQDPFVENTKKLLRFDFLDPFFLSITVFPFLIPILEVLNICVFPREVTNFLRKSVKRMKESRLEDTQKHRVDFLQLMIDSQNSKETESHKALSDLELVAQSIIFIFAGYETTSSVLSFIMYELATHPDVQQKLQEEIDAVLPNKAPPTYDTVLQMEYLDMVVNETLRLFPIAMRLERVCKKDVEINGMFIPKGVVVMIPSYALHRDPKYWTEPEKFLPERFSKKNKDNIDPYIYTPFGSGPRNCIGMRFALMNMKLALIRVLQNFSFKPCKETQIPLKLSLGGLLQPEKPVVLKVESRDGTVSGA

Cn1c(=O)ccc2ccc(F)c(CCNC[C@H]3CN(c4cnc5c(n4)NC(=O)CO5)C(=O)O3)c21 [BWC0977, 6-[(5S)−5-[[[2-(7-Fluoro-1,2-dihydro-1-methyl-2-oxo-8-quinolinyl)ethyl]amino]methyl]−2-oxo-3-oxazolidinyl]−2H-pyrazino[2,3-b]−1,4-oxazin-3(4H)-one]
clearance predicted from CLint, % of liver blood flow (LBF) [1]: < 30%
metabolism by CYP3A4 in reaction phenotyping assay [2]: 80%
crossing of the blood-brain barrier [3]: nor crosses the blood-brain barrier
dose-ranging efficacy (bacterial burden) ([4]; SC every 8 h, wild-type and MDR isolates): excellent dose-response
PK-PD driver of efficacy ([4]; dose fractionation 160 mg/kg/day SC, P. aeruginosa NCTC 13921): free area-under-the-curve over MIC (fAUC/MIC) as the efficacy driver
dose-ranging efficacy (bacterial burden) [5]: excellent dose-response
dose-ranging efficacy (bacterial burden) [6]: excellent dose-response
dose-response efficacy [7]: excellent bactericidal dose-response
total dose observed unchanged in the bile [8]: about 1.5%
AUC0–24 at NOAEL ([9]; 75 mg/kg/day): 52 µg·h/mL
NOAEL at 14 day ([9]; in vivo): 75 mg/kg/day
Cmax ([9]; in vivo, 75 mg/kg/day): 26000 ng/mL
AUC(0-t) ([9]; in vivo, 250 mg/kg/day, AUC0–24 at highest dose level): 355 µg·h/mL
microscopic findings ([9]; up to 250 mg/kg/day): no microscopic findings
VD at steady state (Vss) across the dose levels ([10]; 120-1050 mg): 44.03 to 51.50 L/h
dose proportionality of plasma Cmax and AUC ([10]; 120-1050 mg): increased proportionally with dose
half-life ([10]; 120 mg): 3.3 h
half-life ([10]; 1050 mg): 8.4 h
tolerability [11]: generally well tolerated
MIC ([12]; Escherichia coli, read-out: median MIC, panel of ATCC strains): 0.03 µg/mL (≈ 0.064 µM)
MIC90 ([12]; IHMA/CARB-X MDR clinical isolates 2019, N=300): 0.5 µg/mL (≈ 1.07 µM)
MIC90 ([13]; IHMA/CARB-X MDR clinical isolates 2019, N=152): 2 µg/mL (≈ 4.27 µM)
MIC ([13]; read-out: median MIC, panel of ATCC strains): 0.06 µg/mL (≈ 0.128 µM)
MIC90 [14]: 0.25 µg/mL (≈ 0.534 µM)
dose-response efficacy [15]: excellent bactericidal dose-response
MIC90 [16]: 0.03 to 2 µg/mL (≈ 0.064 to 4.27 µM)
predicted human CL [17]: 20.17 L/h
predicted human CLD2 [17]: 1.002 L/h
predicted human V1 [17]: 40.84 L
predicted human V2 [17]: 23.13 L
